In test [1] the target is T1, recombinant human B7-H4 protein (Homo sapiens, UniProt Q7Z7D3).
T1 construct: B7-H4 extracellular domain Phe29-Ala258 with a C-terminal 10-His tag
T1 sequence (Q7Z7D3 29-258): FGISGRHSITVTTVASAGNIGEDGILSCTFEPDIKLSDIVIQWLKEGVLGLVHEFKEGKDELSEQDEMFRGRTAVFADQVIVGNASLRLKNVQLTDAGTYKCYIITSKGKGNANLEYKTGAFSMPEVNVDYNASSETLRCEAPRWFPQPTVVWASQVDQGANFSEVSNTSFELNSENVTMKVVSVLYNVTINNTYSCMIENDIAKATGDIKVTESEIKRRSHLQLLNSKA
In words: BLI binding to recombinant human B7-H4 (monovalent and bivalent formats). Conditions: mAb compared with ADC. (Biolayer interferometry detects binding as a change in optical thickness at a sensor tip.)

In test [2] the test system is WIL2S and RAJI cells transduced to express human B7-H4. As to the kind of experiment: CDC, Sytox Green, 10% human serum. It is filed as cell-based. The protocol:
Antibodies have the ability to recruit complement proteins triggering complement-dependent cytotoxicity (CDC).
Using complement media (RPMI containing 10% human serum (Complement Technology, Inc. #NHS)), test antibodies and controls were titrated with a 3-fold dilution ranging from 50-0.02 μg/mL and 100 μL/well of the titrations were plated over the target cells. To measure total cell death, 2% Triton X (EMD Millipore Corp. #648463-50ML) was used as a positive control. Test plate was incubated for 2 hours at 37° C. in a humidity-controlled incubator and then Sytox Green fluorescence was read on an Envision plate reader.

The test system of test [3] is MDA-MB-468 xenograft model. In words: MDA-MB-468 xenograft, Study MDAMB468-6. It is filed as in vivo, NSG mice. To be noted: 3 mg/kg, three weekly doses, i.p. The protocol:
Tumor volume was measured twice weekly until study day 80.
Female NSG mice were implanted with 1×10^6 MDA-MB-468 cells in 25% Matrigel H C (Corning #354248) subcutaneously. Once tumor volumes reached 100 mm^3, mice were randomized into treatment groups of 5 mice each and dosed with 0.3, 1, or 3 mg/kg every seven days for three total doses (q7dx3). Twenty-four hours prior to receiving each ADC dose, each animal was treated with 10 mg/kg hIVIG (Grifolds). Tumor volumes were measured twice per week, animals were euthanized when tumor volume reached 700-1000 mm^3. Stock concentrations of ADC were diluted to desired concentration (with 0.01% Tween20 in PBS) and injected i.p. into each treatment group

The subject of test [4] is B7-H4 expression on OVCAR3 tumors. As to the kind of experiment: IHC of B7-H4 on treated OVCAR3 xenograft tumors. It is filed as in vivo, SCID mice. Conditions: OVCAR3 tumors after treatment. The protocol: Antigen retrieval was performed using a Decloaking Chamber NxGen Biocare and the 110° C. program with Diva Retrieval solution. Slides were stained on the IntelliPath Automated stainer per the following protocol: Remove hot containers from the decloaking chamber and rinse in deionized water. Place slides in TBST prior to adding to IntelliPath. Hydrate slides on stainer prior to automation Add 300 uL/slide Peroxidaze (Biocare #PX968) and incubate 10 minutes. Wash slides in TBST. Add 300 uL/slide Sniper block (Biocare #B5966) and incubate 10 minutes. Blot off blocking solution. Add 300 uL/slide primary antibody and incubate 1 hour. Wash slides twice in TBST. Add 300 uL/slide HRP polymer and incubate 30 minutes. Wash slides twice in TBST. Add 300 uL/slide DAB (Vector #sk-4103) and incubate 5 minutes. Wash in TBST. Add 300 uL/slide hematoxylin and incubate 2 minutes. Wash in deionized water. Dehydrate slides by placing them in the oven for 30 minutes. Place coverslip on slides. Images were analyzed using Halo image analysis software (Indica Labs). The H-score was calculated according to the following equation: (3×% Strong Signal)+(2×% Moderate Signal)+(Weak Signal). […]

The subject of test [5] is MDA-MB-468 xenograft tumors. In words: MDA-MB-468 xenograft, single dose, tumor volume. It is filed as in vivo, NSG mice. Conditions: single 3 mg/kg dose, i.p. The protocol: Tumors were harvested 7 days after treatment, cut in half, and processed for RNA-seq or IHC. […]
(§1) Specifically, female NSG mice were implanted with 1×10^6 MDA-MB-468 cells in 25% Matrigel H C subcutaneously. Once tumor volumes reached ˜250-300 mm^3, mice were randomized into treatment groups of 6 mice each and treated with a single 3 mg/kg dose of ADC or mAb, or vehicle control (20 mM Histidine buffer, pH 6.0) injected intraperitoneally (i.p.). Stock concentrations of ADC were diluted to desired concentration with 20 mM Histidine buffer, pH 6.0 or and stock concentration of mAb were diluted to desired concentration with 0.01% Tween20 in PBS. Twenty-four hours prior to dosing, each animal was treated with 10 mg/kg hIVIG. One week following treatment, tumors were harvested, cut in half, and processed for RNAseq (frozen at −80° C.) or formalin-fixed and paraffin-embedded for immunohistochemical (IHC) analysis.

The test system of test [6] is MDA-MB-468 xenograft tumors. As to the kind of experiment: RNAseq of treated MDA-MB-468 xenograft tumors. The test is classed as in vivo, NSG mice. To be noted: single 3 mg/kg dose; compared to vehicle control. The protocol: as §1
For RNAseq, RNA was extracted from tumors and library preparation for […] sequencing was performed using PolyA selection. RNA was sequenced using the Illumina HiSeq platform 2×150 bp configuration. […] Adaptors were trimmed using cutadapt version 1.16, reads were aligned to a composite (GRCh38(h38)/GRCm38(mm10)) genome using STAR version 2.5.2. Transcripts and genes were quantitated via RSEM version 1.2.31. Quantitative and statistical differences were determined between groups of samples using DESeq2 version 1.28.1. […]

The values that follow come from US20230117205A1, “B7-H4 ANTIBODY-DRUG CONJUGATES FOR THE TREATMENT OF CANCER” (SEAGEN INC., priority 2021, published 2023).

Turning to “SGN-B7H4V: ADC of fully human IgG1 anti-B7-H4 mAb conjugated to monomethyl auristatin E (MMAE) via a protease-cleavable valine-citrulline linker (vedotin)”, the “binding affinities for hB7-H4” value in test [1] was “similar”. The “lysis (CDC)” value in test [2] is “did not induce lysis”. Further, in test [3], the “anti-tumor activity (tumor volume)” value is listed as “transient regression of tumor volumes in all mice”. The “impact on tumor B7-H4 expression” value in test [4] was “did not have a significant impact”. Further, in test [5], the tumor volume result is “reduction in tumor volume”. Also, the “upregulation of human transcripts encoding cytokines (CXCL10 and CXCL1)” value in test [6] was 2-3 fold.
